US10239884B2, “Coelenterazine compounds and uses thereof” (KEIO UNIVERSITY, priority 2017, dated 2019)

Experiments:
RLuc8 [1] = target: T1, RLuc8 (Renilla reniformis, UniProt P27652, A143M/A55T/C124A/K136R/M185V/M253L/S130A/S287L); format: biochemical; details: bioluminescence spectrum, ATTO LumiFL
T1 construct: expressed in transfected cells; host or cells: COST cells (so in the source)
Protocol: (§1) As in the method for measuring bioluminescence intensity described above, luminescence spectrum was measured according to the protocol of Renilla Luciferase Assay System (Cat. No. E 2810; Promega). The luminescence spectrum was measured using ATTO LumiFL. The maximum luminescence intensities were normalized to be relative values to 1.0 upon determination of the maximum luminescence wavelength.

[2] = target: T2, native Renilla Luciferase (RLuc) (Renilla reniformis, UniProt P27652); experiment: Bioluminescence intensity, Renilla Luciferase luminescence system; format: biochemical; details: 2 μM substrate in PBS pH 7.4, cell lysate, maximum intensity over 1 second, relative value
T2 construct: expressed in transfected cells; host or cells: COST cells (so in the source)
T2 sequence (P27652 1-311): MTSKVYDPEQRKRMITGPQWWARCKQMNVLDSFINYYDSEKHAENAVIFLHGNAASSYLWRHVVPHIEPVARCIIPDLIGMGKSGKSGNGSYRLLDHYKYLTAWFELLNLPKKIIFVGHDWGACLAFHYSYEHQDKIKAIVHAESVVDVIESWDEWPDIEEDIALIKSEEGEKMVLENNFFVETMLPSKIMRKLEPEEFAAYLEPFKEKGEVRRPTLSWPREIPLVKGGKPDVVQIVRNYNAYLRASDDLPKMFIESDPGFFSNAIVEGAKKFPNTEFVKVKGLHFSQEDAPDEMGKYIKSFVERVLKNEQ
Description: The luciferases were respectively expressed in COST cells using an expression vector (pcDNA3.1(+), commercially available from Invitrogen) comprising the sequence encoding native Renilla Luciferase (RLuc) (trade name pGL4.75, commercially available from Promega) or an expression vector (trade name pcDNA3.1(+), commercially available from Invitrogen) comprising the sequence encoding a RLuc derivative RLuc8 or RLuc8.6-535 (Reference: Loening, A. M. et al., Nat. Methods, 2007, 4, 641-643.). The cells were lysed using a Renilla Luciferase Lysis Buffer (E291A, Promega), and the lysate was directly used as an enzyme solution. […] Bioluminescence was measured according to the protocol of Renilla Luciferase Assay System (Cat. No. E 2810; Promega). The luminescent substrate was dissolved in methanol to prepare a 2 mM solution. The solution was diluted to 2 μM with PBS buffer (pH 7.4), and the diluted solution was used as a substrate solution. […] The luminescence intensity was measured with a Berthold Lumat LB 9507 for 1 second, and indicated by the maximum luminescence intensity (I). The luminescence intensity of the native CTZ by RLuc8 was set to be 1.0, and the other bioluminescence intensities were normalized to be relative values to that of native CTZ.

RLuc8 [3] = target: T1, RLuc8; format: biochemical; details: 2 μM substrate in PBS pH 7.4, cell lysate, maximum intensity over 1 second, relative value
Description: (§2) The luciferases were respectively expressed in COST cells using an expression vector (pcDNA3.1(+), commercially available from Invitrogen) comprising the sequence encoding native Renilla Luciferase (RLuc) (trade name pGL4.75, commercially available from Promega) or an expression vector (trade name pcDNA3.1(+), commercially available from Invitrogen) comprising the sequence encoding a RLuc derivative RLuc8 or RLuc8.6-535 (Reference: Loening, A. M. et al., Nat. Methods, 2007, 4, 641-643.). The cells were lysed using a Renilla Luciferase Lysis Buffer (E291A, Promega), and the lysate was directly used as an enzyme solution. […] Bioluminescence was measured according to the protocol of Renilla Luciferase Assay System (Cat. No. E 2810; Promega). The luminescent substrate was dissolved in methanol to prepare a 2 mM solution. The solution was diluted to 2 μM with PBS buffer (pH 7.4), and the diluted solution was used as a substrate solution. To 200 μL of the substrate solution, 4 μL of the cell lysate containing RLuc, RLuc 8 or RLuc8.6-535 was added to start the luminescent reaction. The luminescence intensity was measured with a Berthold Lumat LB 9507 for 1 second, and indicated by the maximum luminescence intensity (I). The luminescence intensity of the native CTZ by RLuc8 was set to be 1.0, and the other bioluminescence intensities were normalized to be relative values to that of native CTZ.

RLuc8.6-535 [4] = target: T3, RLuc8.6-535 (Renilla reniformis, UniProt P27652, A123S/A143M/A55T/C124A/D154M/D162E/E155G/I163L/K136R/M185L/M253L/S130A/S287L); format: biochemical; parameters: expressed in transfected cells; host or cells: COST cells (so in the source); details: bioluminescence spectrum, ATTO LumiFL
Protocol: as §1

RLuc8.6-535 [5] = target: T3, RLuc8.6-535; format: biochemical; parameters: expressed in transfected cells; host or cells: COST cells (so in the source); details: for RLuc8.6-535 luminescence intensity (%): 2 μM substrate in PBS pH 7.4, cell lysate, maximum intensity over 1 second, relative value
Description: as §2

ALuc24 = experiment: Bioluminescence intensity, ALuc system test; format: biochemical; details: 1 μM substrate, relative to nCTZ/ALuc34
RLuc8.6-535 [6] = target: T3, RLuc8.6-535; experiment: Bioluminescence intensity, ALuc system test; format: biochemical; parameters: expressed in transfected cells; details: 1 μM substrate, relative to nCTZ/ALuc34
Protocol: (§3) The cells were lysed using a Renilla Luciferase Buffer (E291A; Promega), and the lysate was directly used as an enzyme solution. As luminescent substrates, native CTZ (Nanolight technology) and 6-Al2N3-CTZ (Example 17) were used. Bioluminescence was measured according to the protocol of a Renilla Luciferase Assay System (Cat. No. E2810; Promega). The luminescent substrate was dissolved in methanol to prepare a 1 mM solution. The solution was diluted to 1 μM with Promega buffer, and the diluted solution was used as a substrate solution. To 40 μL of the substrate solution, 10 μL of the cell lysate containing RLuc8.6-535, ALuc16, ALuc22, ALuc23 or ALuc34 was added for starting the luminescent reaction. Using Fujifilm LAS-4000, the luminescence intensities were measured 0 and 20 minutes after the start of the enzyme reaction. Further, from the results of bioluminescence intensity shown in FIG. 3, the bioluminescence intensities were summarized in Tables 4-1 and 4-2 below, where the luminescence intensities were normalized to be the relative values of nCTZ/ALuc34 (100%).

ALuc22 = experiment: Bioluminescence intensity, ALuc system test; format: biochemical; details: 1 μM substrate, relative to nCTZ/ALuc34
Protocol: as §3

ALuc23 = experiment: Bioluminescence intensity, ALuc system test; format: biochemical; details: 1 μM substrate, relative to nCTZ/ALuc34
Protocol: as §3

ALuc16 = experiment: Bioluminescence intensity, ALuc system test; format: biochemical; details: 1 μM substrate, relative to nCTZ/ALuc34
Protocol: as §3

ALuc34 = experiment: Bioluminescence intensity, ALuc system test; format: biochemical; details: for luminescence intensity (%): 1 μM substrate, relative to nCTZ/ALuc34
Protocol: as §3

ALuc30 = experiment: Bioluminescence intensity, ALuc system test; format: biochemical; details: 1 μM substrate, relative to nCTZ/ALuc34
NanoLuc = target: T4, NanoLuc (Oplophorus gracilirostris, UniProt Q9GV45, A31E/A60N/A81I/F95D/I117V/K70R/L54V/L99Q/M102K/N193R/P142E/Q151K/Q38R/Q45L/V71I/Y165I); details: combined with NanoLuc; cited from earlier work
T4 construct: literature Promega

[7] = system: artificial bioluminescent enzyme (ALuc); details: same wavelength range (480-500 nm); cited from earlier work
[8] = target: T5, Renilla Luciferase (RLuc) (Renilla reniformis, UniProt P27652); details: CTZ as luminescent substrate; cited from earlier work
T5 sequence (P27652 1-311): T2 sequence (P27652 1-311)

GLuc = experiment: Bioluminescence intensity, ALuc system test; format: biochemical; details: 0 minutes after the start of measurement, 1 μM substrate, relative to nCTZ/ALuc34
[9] = ALuc24, 0 minutes after the start of measurement
[10] = ALuc24, 20 minutes after the start of measurement
[11] = RLuc8.6-535, 0 minutes after the start of measurement
[12] = ALuc22, 0 minutes after the start of measurement
[13] = ALuc22, 20 minutes after the start of measurement
[14] = ALuc23, 0 minutes after the start of measurement
[15] = ALuc23, 20 minutes after the start of measurement
[16] = ALuc16, 0 minutes after the start of measurement
[17] = ALuc16, 20 minutes after the start of measurement
[18] = ALuc34, 0 minutes after the start of measurement
[19] = ALuc34, 20 minutes after the start of measurement
[20] = ALuc30, 0 minutes after the start of measurement
[21] = ALuc30, 20 minutes after the start of measurement

T1 sequence (P27652 whole entry A55T/C124A/S130A/K136R/A143M/M185V/M253L/S287L): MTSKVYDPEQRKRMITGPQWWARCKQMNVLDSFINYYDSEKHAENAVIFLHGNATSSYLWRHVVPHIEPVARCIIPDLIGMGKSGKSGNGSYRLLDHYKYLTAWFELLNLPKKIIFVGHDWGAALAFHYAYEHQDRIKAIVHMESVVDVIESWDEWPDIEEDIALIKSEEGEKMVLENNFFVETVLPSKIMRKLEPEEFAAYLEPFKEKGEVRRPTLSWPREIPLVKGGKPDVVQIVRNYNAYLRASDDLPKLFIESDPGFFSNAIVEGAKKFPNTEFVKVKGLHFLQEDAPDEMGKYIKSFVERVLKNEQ
T3 sequence (P27652 whole entry A55T/A123S/C124A/S130A/K136R/A143M/D154M/E155G/D162E/I163L/M185L/M253L/S287L): as the sequence (P27652 whole entry A55T/C124A/S130A/K136R/A143M/M185V/M253L/S287L) above, with A123S, D154M, E155G, D162E, I163L, V185L counted along it
T4 sequence (Q9GV45 28-196 with tags or gaps with the stated changes limits assumed): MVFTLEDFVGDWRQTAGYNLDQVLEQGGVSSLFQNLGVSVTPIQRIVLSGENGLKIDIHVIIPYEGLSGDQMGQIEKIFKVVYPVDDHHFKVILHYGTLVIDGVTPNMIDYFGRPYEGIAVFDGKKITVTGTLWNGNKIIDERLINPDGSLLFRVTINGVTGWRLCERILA

Row | SMILES | RLuc8 half-width (nm) (RLuc8 [1]) | RLuc8 maximum luminescence wavelength (nm) (RLuc8 [1]) | RLuc luminescence intensity (%) [2] | RLuc8 luminescence intensity (%) (RLuc8 [3]) | RLuc8.6-535 half-width (nm) (RLuc8.6-535 [4]) | RLuc8.6-535 maximum luminescence wavelength (nm) (RLuc8.6-535 [4]) | RLuc8.6-535 luminescence intensity (%) (RLuc8.6-535 [5]) | luminescence intensity (%) (ALuc24; [9]) | luminescence intensity (%) (ALuc24; [10]) | luminescence intensity (%) (RLuc8.6-535 [6]; [11]) | luminescence intensity (%) (ALuc22; [12]) | luminescence intensity (%) (ALuc22; [13]) | luminescence intensity (%) (ALuc23; [14]) | luminescence intensity (%) (ALuc23; [15]) | luminescence intensity (%) (ALuc16; [16]) | luminescence intensity (%) (ALuc16; [17]) | luminescence intensity (%) (ALuc34; [18]) | luminescence intensity (%) (ALuc34; [19]) | luminescence intensity (%) (ALuc30; [20]) | luminescence intensity (%) (ALuc30; [21]) | other results
1 | O=c1c(Cc2ccc(O)cc2)nc2c(Cc3ccccc3)[nH]c(-c3ccc(OCCCO)cc3)cn1-2 [6-Alkyl3OH-CTZ] | [60] nm | 414 nm | 0.11% | 9.74% | [56] nm | 415 nm | 75.3% | – | – | – | – | – | – | – | – | – | – | – | – | – | luminescence intensity higher than that of DeepBlueC/RLuc8 (RLuc8.6-535 [5]; with RLuc8.6-535, versus conventional blue-shifted RLuc luminescence system (DeepBlueC/RLuc8)): 32 fold
2 | [N-]=[N+]=NCCOc1ccc(-c2cn3c(=O)c(Cc4ccc(O)cc4)nc-3c(Cc3ccccc3)[nH]2)cc1 [Example 6-Al2N3-CTZ] | – | – | – | – | – | – | – | 0.56% | 0.17% | 0.01% | 1.32% | 0.46% | 2.53% | 1.00% | 1.72% | 0.60% | 3.45% | 1.27% | 0.83% | 0.28% | luminescence intensity higher than that of native CTZ/ALuc34 (ALuc34; with ALuc34, immediately after the start of the measurement): about 3.4 fold
3 | O=c1c(Cc2ccco2)nc2c(Cc3ccccc3)[nH]c(-c3ccccc3)cn1-2 [Furimazine] | – | – | – | – | – | – | – | – | – | – | – | – | – | – | – | – | – | – | – | – | luminescence intensity higher than that of the firefly luciferase luminescence system (NanoLuc): about 100 fold
4 | Oc1ccc(Cc2nc3c(Cc4ccccc4)nc(-c4ccc(O)cc4)cn3c2O)cc1 [Native-CTZ, coelenterazine] | [98] nm | 484 nm | 10.7% | 80.5% | [111] nm | 538 nm | 100% | 0.40% | 0.31% | 0.05% | 0.65% | 0.42% | 0.58% | 0.58% | 0.43% | 0.42% | 1.0% | 1% | 0.28% | 0.21% | luminescence intensity higher than that of the conventional RLuc luminescence system [7]: about 50 fold; quantum yield of the RLuc luminescence system [8]: 0.05; luminescence intensity (%) (RLuc8.6-535 [6]; RLuc8.6-535, 20 minutes after the start of measurement): 0.05%; luminescence intensity (%) (GLuc): 0.08%
